ChEMBL document CHEMBL1133670 (J Med Chem, 2000)

Legend:
[1] = target: T1, Protein farnesyltransferase (Rattus norvegicus) (UniProt Q04631+Q02293); assay: Percent phenotypic reversion of H-ras transformed Rat-1 cells at 1 uM; format: functional, cell-based
NIH3T3 = assay: cells; details: Mus musculus
Description: Inhibition of anchorage independent growth of H-ras transformed NIH3T3 cells in Soft Agar

[2] = target: Protein farnesyltransferase (Homo sapiens, UniProt P49354+P49356); assay: Inhibition of purified recombinant human farnesyltransferase (FT)
in vivo [3] = details: rat, po, 50 mg/kg
Description: Oral bioavailability observed in rats at an oral dose of 50 mg/kg

[4] = Half-life of compound in rats following intravenous dose of 50 mg/kg; details: rat, in vivo
[5] = Maximum concentration observed in rats at an oral dose of 50 mg/kg; details: rat, in vivo
[6] = Clearance in rats following intravenous dose of 50 mg/kg; details: rat, in vivo
in vivo [7] = details: rat, iv, 50 mg/kg
Description: Volume of distribution (Vss) in rats following intravenous dose of 50 mg/kg

[8] = Oral bioavailability, based on dose-normalized AUC values in BALB/c mice; format: ADME, organism-based; details: mouse, in vivo
[9] = Half-life of compound in Balb/c mice following an oral dose of 90 mg/kg; details: Balb/c mouse, in vivo
[10] = target: T1, Protein farnesyltransferase (Rattus norvegicus); assay: Percent phenotypic reversion of H-ras transformed Rat-1 cells at 10 uM; format: functional, cell-based
Mus musculus [11] = assay: In vivo antitumor activity (log cell kill, LCK) by subcutaneous implantation of HCT116 tumors followed by oral administration at an optimal dose of 600 mg/kg in expt. 3; format: functional
Mus musculus [12] = assay: In vivo antitumor activity (log cell kill, LCK) by subcutaneous implantation of HCT116 tumors followed by oral administration at an optimal dose of 600 mg/kg in mice
Mus musculus [13] = species on record: Mus musculus; assay: Increase in lifespan reflected by relative median survival time of treated versus control groups expressed as maximum % T/C; format: functional
Mus musculus [14] = assay: In vivo antitumor activity (log cell kill, LCK) by subcutaneous implantation of HCT116 tumors followed by oral administration at an optimal dose of 700 mg/kg in expt. 1; format: functional
Mus musculus [15] = assay: In vivo antitumor activity (log cell kill, LCK) by subcutaneous implantation of HCT116 tumors followed by oral administration at an optimal dose of 600 mg/kg in expt. 5; format: functional
[16] = target: T1, Protein farnesyltransferase (Rattus norvegicus); assay: Percent phenotypic reversion of H-ras transformed Rat-1 cells at 5 uM; format: functional, cell-based
Mus musculus [17] = assay: In vivo antitumor activity (log cell kill, LCK) by subcutaneous implantation of HCT116 tumors followed by oral administration at an optimal dose of 600 mg/kg in expt. 4; format: functional
Mus musculus [18] = assay: In vivo antitumor activity (log cell kill, LCK) by subcutaneous implantation of HCT116 tumors followed by oral administration at an optimal dose of 600 mg/kg in expt. 2; format: functional

Reversion [1] [%] | IC50 [2] [nM] | SMILES | EC50 (NIH3T3) [nM] | other results
10 | – | CS(=O)(=O)N1Cc2cc(-c3cccnc3)ccc2N(Cc2c[nH]cn2)CC1Cc1ccccc1 (stereo not given) | – | –
– | 1.77 | CCCS(=O)(=O)N1Cc2cc(C#N)ccc2N(Cc2cnc[nH]2)C[C@H]1Cc1ccccc1 | 10 | –
– | 54.5 | CC(=O)N1Cc2cc(Br)ccc2N(Cc2cnc[nH]2)CC1Cc1cccc2ccccc12 (stereo not given) | – | –
– | – | N#Cc1ccc2c(c1)CN(S(=O)(=O)c1cccs1)[C@H](Cc1ccccc1)CN2Cc1cnc[nH]1 [BMS-214662] | – | bioavailability (in vivo [3]): 56%; half-life [4]: 2.4 h; Cmax [5]: 20 µM; clearance [6]: 5.7 mL/min/kg; Vd (in vivo [7]): 1.4 L/kg
– | 10.7 | CS(=O)(=O)N1Cc2cc(Br)ccc2N(Cc2cnc[nH]2)C[C@H]1Cc1ccccc1 | – | bioavailability [8]: 40%; half-life [9]: 1.2 h
0 | – | CS(=O)(=O)N1Cc2cc(Br)ccc2N(Cc2c[nH]cn2)CC1CNC(=O)c1ccccc1 (stereo not given) | – | –
– | 30 | CS(=O)(=O)N1Cc2cc(Br)ccc2N(Cc2cnc[nH]2)CC1Cc1ccccc1 (stereo not given) | – | –
– | 437 | CS(=O)(=O)N1Cc2cc(Br)ccc2N(Cc2cnc[nH]2)C[C@@H]1Cc1ccccc1 | – | –
– | 8.75 | CC(=O)N1Cc2cc(C#N)ccc2N(Cc2c[nH]cn2)C[C@H]1Cc1ccccc1 | 100 | –
– | 276 | O=C(c1cccc2ccccc12)N1Cc2ccccc2N(Cc2c[nH]cn2)CC1Cc1ccccc1 (stereo not given) | – | Reversion [10]: 70%
30 | 60 | CC(=O)N1Cc2cc(Br)ccc2N(Cc2c[nH]cn2)CC1Cc1ccccc1 (stereo not given) | 600 | –
– | 383 | CS(=O)(=O)N1Cc2cc(-c3ccccc3)ccc2N(Cc2cnc[nH]2)C[C@H]1Cc1ccncc1 | – | –
70 | – | CS(=O)(=O)N1Cc2cc(Br)ccc2N(Cc2c[nH]cn2)CC1CCc1ccccc1 (stereo not given) | 400 | –
– | 1100 | CC1CN(Cc2c[nH]cn2)c2ccccc2CN1C(=O)c1cccc2ccccc12 (stereo not given) | – | Reversion [10]: 0%
40 | 17 | CN(C)C(=O)N1Cc2cc(C#N)ccc2N(Cc2c[nH]cn2)C[C@H]1Cc1ccccc1 | – | –
– | – | CS(=O)(=O)N1Cc2cc(Br)ccc2N(Cc2c[nH]cn2)C[C@H]1CC1CCCCC1 | – | Reversion [10]: 90%

Reversion [1] [%] | IC50 [2] [nM] | SMILES | EC50 (NIH3T3) [nM] | other results
5 | – | CC(=O)N1Cc2cc(Br)ccc2N(Cc2c[nH]cn2)CC1Cc1cccc2ccccc12 (stereo not given) | – | –
50 | 22 | CCOC(=O)N1Cc2cc(C#N)ccc2N(Cc2c[nH]cn2)C[C@H]1Cc1ccccc1 | 300 | –
– | 7.9 | CS(=O)(=O)N1Cc2cc(-c3cccnc3)ccc2N(Cc2cnc[nH]2)CC1Cc1ccccc1 (stereo not given) | – | –
– | 228 | O=C(c1cccc2ccccc12)N1CCN(Cc2cnc[nH]2)c2ccc(Br)cc2C1 | – | –
– | 54.5 | CS(=O)(=O)N1Cc2cc(-c3ccccc3)ccc2N(Cc2cnc[nH]2)CC1Cc1ccccc1 (stereo not given) | – | –
– | 1300 | CC(=O)N1Cc2ccccc2N(Cc2c[nH]cn2)CC1Cc1ccccc1 (stereo not given) | – | –
– | 23.5 | CS(=O)(=O)N1Cc2cc(Br)ccc2N(Cc2cnc[nH]2)C[C@H]1CC1CCCCC1 | – | –
– | – | O=C(c1cccc2ccccc12)N1CCN(Cc2c[nH]cn2)c2ccccc2C1 | – | Reversion [10]: 0%
– | 86 | CS(=O)(=O)N1Cc2cc(Br)ccc2N(Cc2cnc[nH]2)CC1CNC(=O)c1ccccc1 (stereo not given) | – | –
0 | 101 | COc1ccc(CC2CN(Cc3c[nH]cn3)c3ccc(Br)cc3CN2S(C)(=O)=O)cc1 (stereo not given) | – | –
– | 45 | CS(=O)(=O)N1Cc2cc(Br)ccc2N(Cc2cnc[nH]2)CC1CCc1ccccc1 (stereo not given) | – | –
70 | 18 | CS(=O)(=O)N1Cc2cc(Br)ccc2N(Cc2c[nH]cn2)CC1Cc1ccccc1Cl (stereo not given) | 460 | –
70 | – | CS(=O)(=O)N1Cc2cc(-c3ccccc3)ccc2N(Cc2c[nH]cn2)CC1Cc1ccccc1 (stereo not given) | 530 | –
– | – | O=C(c1cccc2ccccc12)N1CCN(Cc2c[nH]cn2)c2ccc(Br)cc2C1 | – | Reversion [16]: 5%
– | 1.77 | N#Cc1ccc2c(c1)CN(S(=O)(=O)c1ccccc1)[C@H](Cc1ccccc1)CN2Cc1cnc[nH]1 | 10 | –
– | 24 | CS(=O)(=O)N1Cc2cc(Br)ccc2N(Cc2c[nH]cn2)CC1Cc1cccc(Cl)c1 (stereo not given) | – | Reversion [10]: 70%

SMILES | Reversion [1] [%] | IC50 [2] [nM] | EC50 (NIH3T3) [nM] | other results
CS(=O)(=O)N1Cc2cc(C#N)ccc2N(Cc2c[nH]cn2)C[C@H]1Cc1ccccc1 | – | 3 | 13 | LCK (Mus musculus [11]): 0.6
CS(=O)(=O)N1Cc2cc(-c3ccccc3)ccc2N(Cc2c[nH]cn2)C[C@H]1Cc1cccnc1 | – | 5.95 | 15 | LCK (Mus musculus [12]): 0.1
CS(=O)(=O)N1Cc2cc(Br)ccc2N(Cc2c[nH]cn2)CC1Cc1ccccc1 (stereo not given) | 80 | – | 270 | T/C (Mus musculus [13]): 138%
CS(=O)(=O)N1Cc2cc(Br)ccc2N(Cc2c[nH]cn2)C[C@H]1Cc1ccccc1 | 70 | – | 290 | LCK (Mus musculus [14]): 1.5
CN(C)CCS(=O)(=O)N1Cc2cc(C#N)ccc2N(Cc2c[nH]cn2)C[C@H]1Cc1ccccc1 | – | 1.53 | 30 | LCK (Mus musculus [15]): 1
CN(C)S(=O)(=O)N1Cc2cc(C#N)ccc2N(Cc2c[nH]cn2)C[C@H]1Cc1ccccc1 | – | 2.85 | 50 | LCK (Mus musculus [17]): 0.2
CS(=O)(=O)N1Cc2cc(-c3ccncc3)ccc2N(Cc2c[nH]cn2)C[C@H]1Cc1ccccc1 | – | 16 | 40 | LCK (Mus musculus [18]): 0.2
